Laboratory results reported in EP4603105A1, “PHARMACEUTICAL COMPOSITION CONTAINING CYCLIC COMPOUND HAVING SELECTIVE KRAS INHIBITORY EFFECT AGAINST HRAS AND NRAS” (CHUGAI SEIYAKU KABUSHIKI KAISHA, priority 2022, dated 2024).

Experiments:
[1] = molecular target: GDP-bound NRAS wild-type protein (Homo sapiens, UniProt P01111); assay: Binding to NRAS by surface plasmon resonance (SPR), KD and KD ratio to KRAS; details: ratio of KD for GDP-bound NRAS wild-type protein to KD for KRAS
Summary of the method: (§1)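 Affinity is measured by surface plasmon resonance at 30°C against captured, GDP-loaded RAS carrying a biotinylated Avi tag. Compounds are titrated by single-cycle kinetics, and KD comes from a 1:1 fit.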

HRAS wild-type protein = HRAS wild-type protein (Homo sapiens, UniProt P01112); assay: Binding to HRAS by surface plasmon resonance (SPR), KD and KD ratio to KRAS; details: ratio of KD for HRAS wild-type protein to KD for KRAS
HRAS wild-type protein, sequence (P01112 whole entry): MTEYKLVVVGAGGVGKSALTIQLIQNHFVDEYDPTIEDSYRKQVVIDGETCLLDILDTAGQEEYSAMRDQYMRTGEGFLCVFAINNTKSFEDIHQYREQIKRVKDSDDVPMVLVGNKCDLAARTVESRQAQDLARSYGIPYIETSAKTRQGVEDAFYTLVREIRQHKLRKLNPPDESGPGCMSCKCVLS
Summary of the method: as §1

[2] = test system: human lung cancer strain NCI-H441; format: cell-based
Summary of the method: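 Readout: […] after the ATP-based reagent. Compound: serial dilutions in dimethyl sulfoxide.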

GDP-bound NRAS wild-type protein, sequence (P01111 whole entry): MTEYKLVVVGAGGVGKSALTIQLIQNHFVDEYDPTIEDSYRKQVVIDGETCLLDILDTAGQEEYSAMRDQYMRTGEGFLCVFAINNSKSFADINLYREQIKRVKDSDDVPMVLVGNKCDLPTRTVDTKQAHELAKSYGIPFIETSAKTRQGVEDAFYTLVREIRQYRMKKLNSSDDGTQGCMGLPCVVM

SMILES	NRAS /KRAS [1]	HRAS /KRAS (HRAS wild-type protein)	IC50 [2] [nM]
CC[C@H](C)[C@@H]1NC(=O)[C@H](COC)N(C)C(=O)C[C@@H](C(=O)N2CCOCC2)N(C)C(=O)[C@H](C2CCCC2)N(C)C(=O)C2(CCC2)NC(=O)[C@@H]2C[C@@H](OCC(C)C)CN2C(=O)[C@H](CCc2cc(F)c(C(F)(F)F)c(F)c2)NC(=O)CN(C)C(=O)[C@H](Cc2ccc(C(F)(F)F)cc2)N2CCCCC[C@@H](C2=O)N(C)C(=O)CN(C)C1=O [PP0839]	B (a compound having 3 or more and less than 10 is denoted as B)	B (a compound having 3 or more and less than 10 is denoted as B)	122
CC[C@H](C)[C@@H]1NC(=O)[C@H](COC)N(C)C(=O)C[C@@H](C(=O)N2CCOCC2)N(C)C(=O)[C@H](C2CCCC2)N(C)C(=O)C2(CCC2)NC(=O)[C@@H]2CCN2C(=O)[C@H](CCc2cc(F)c(C(F)(F)F)c(F)c2)NC(=O)CN(C)C(=O)[C@H](Cc2ccc(C(F)(F)F)cc2)N2CCCCC[C@@H](C2=O)N(C)C(=O)CN(C)C1=O [PP0840]	B (a compound having 3 or more and less than 10 is denoted as B)	B (a compound having 3 or more and less than 10 is denoted as B)	572
CCO[C@@H]1C[C@H]2C(=O)NC3(CCCC3)C(=O)N(C)[C@@H](C3CCCC3)C(=O)N(C)[C@H](C(=O)N3CCOCC3)CC(=O)N(C)[C@@H](COC)C(=O)N[C@@H]([C@@H](C)CC)C(=O)N(C)CC(=O)N(C)[C@H]3CCCCCN(C3=O)[C@@H](Cc3ccc(C(F)(F)F)cc3)C(=O)N(C)CC(=O)N[C@@H](CCc3cc(F)c(C(F)(F)F)c(F)c3)C(=O)N2C1 [PP0841]	B (a compound having 3 or more and less than 10 is denoted as B)	B (a compound having 3 or more and less than 10 is denoted as B)	112
CCO[C@@H]1C[C@H]2C(=O)NC3(CC=CC3)C(=O)N(C)[C@@H](C3CCCC3)C(=O)N(C)[C@H](C(=O)N3CCOCC3)CC(=O)N(C)[C@@H](COC)C(=O)N[C@@H]([C@@H](C)CC)C(=O)N(C)CC(=O)N(C)[C@H]3CCCCCN(C3=O)[C@@H](Cc3ccc(C(F)(F)F)cc3)C(=O)N(C)CC(=O)N[C@@H](CCc3cc(F)c(C(F)(F)F)c(F)c3)C(=O)N2C1 [PP0842]	B (a compound having 3 or more and less than 10 is denoted as B)	B (a compound having 3 or more and less than 10 is denoted as B)	174
CCO[C@@H]1C[C@H]2C(=O)NC3(CC(F)(F)C3)C(=O)N(C)[C@@H](C3CCCC3)C(=O)N(C)[C@H](C(=O)N3CCOCC3)CC(=O)N(C)[C@@H](COC)C(=O)N[C@@H]([C@@H](C)CC)C(=O)N(C)CC(=O)N(C)[C@H]3CCCCCN(C3=O)[C@@H](Cc3ccc(C(F)(F)F)cc3)C(=O)N(C)CC(=O)N[C@@H](CCc3cc(F)c(C(F)(F)F)c(F)c3)C(=O)N2C1 [PP0843]	B (a compound having 3 or more and less than 10 is denoted as B)	B (a compound having 3 or more and less than 10 is denoted as B)	38.6
CCO[C@@H]1C[C@H]2C(=O)NC3(CC(C)(C)C3)C(=O)N(C)[C@@H](C3CCCC3)C(=O)N(C)[C@H](C(=O)N3CCOCC3)CC(=O)N(C)[C@@H](COC)C(=O)N[C@@H]([C@@H](C)CC)C(=O)N(C)CC(=O)N(C)[C@H]3CCCCCN(C3=O)[C@@H](Cc3ccc(C(F)(F)F)cc3)C(=O)N(C)CC(=O)N[C@@H](CCc3cc(F)c(C(F)(F)F)c(F)c3)C(=O)N2C1 [PP0844]	B (a compound having 3 or more and less than 10 is denoted as B)	B (a compound having 3 or more and less than 10 is denoted as B)	50.2
CC[C@H](C)[C@@H]1NC(=O)[C@H](COC)N(C)C(=O)C[C@@H](C(=O)N2CCOCC2)N(C)C(=O)[C@H](C2CCCC2)N(C)C(=O)C2(CCCC2)NC(=O)[C@@H]2CCCN2C(=O)[C@H](CCc2cc(F)c(C(F)(F)F)c(F)c2)NC(=O)CN(C)C(=O)[C@H](Cc2ccc(C(F)(F)F)cc2)N2CCCCC[C@@H](C2=O)N(C)C(=O)CN(C)C1=O [PP0845]	B (a compound having 3 or more and less than 10 is denoted as B)	B (a compound having 3 or more and less than 10 is denoted as B)	135
CC[C@H](C)[C@@H]1NC(=O)[C@H](COC)N(C)C(=O)C[C@@H](C(=O)N2CCOCC2)N(C)C(=O)[C@H](C2CCCC2)N(C)C(=O)C2(CCCC2)NC(=O)[C@@H]2CC(F)(F)CN2C(=O)[C@H](CCc2cc(F)c(C(F)(F)F)c(F)c2)NC(=O)CN(C)C(=O)[C@H](Cc2ccc(C(F)(F)F)cc2)N2CCCCC[C@@H](C2=O)N(C)C(=O)CN(C)C1=O [PP0846]	B (a compound having 3 or more and less than 10 is denoted as B)	B (a compound having 3 or more and less than 10 is denoted as B)	22.2
CC[C@H](C)[C@@H]1NC(=O)[C@H](COC)N(C)C(=O)C[C@@H](C(=O)N2CCOCC2)N(C)C(=O)[C@H](C2CCCC2)N(C)C(=O)C2(CCCC2)NC(=O)[C@@H]2C[C@H](O)CN2C(=O)[C@H](CCc2cc(F)c(C(F)(F)F)c(F)c2)NC(=O)CN(C)C(=O)[C@H](Cc2ccc(C(F)(F)F)cc2)N2CCCCC[C@@H](C2=O)N(C)C(=O)CN(C)C1=O [PP0847]	B (a compound having 3 or more and less than 10 is denoted as B)	B (a compound having 3 or more and less than 10 is denoted as B)	136
CCO[C@@H]1C[C@H]2C(=O)NC3(CCC3)C(=O)N(C)[C@@H](C3CCCC3)C(=O)N(C)[C@H](C(=O)N3CCOCC3)CC(=O)N(C)[C@@H](COC)C(=O)N[C@@H]([C@@H](C)CC)C(=O)N(C)CC(=O)N(C)[C@H]3CCCCCN(C3=O)[C@@H](Cc3ccc(C(F)(F)F)cc3)C(=O)N(C)CC(=O)N[C@@H](CCc3ccc(C(F)(F)F)c(F)c3)C(=O)N2C1 [PP0848]	B (a compound having 3 or more and less than 10 is denoted as B)	B (a compound having 3 or more and less than 10 is denoted as B)	37.5
CCO[C@@H]1C[C@H]2C(=O)NC3(CCC3)C(=O)N(C)[C@@H](C3CCCC3)C(=O)N(C)[C@H](C(=O)N3CCOCC3)CC(=O)N(C)[C@@H](COC)C(=O)N[C@@H]([C@@H](C)CC)C(=O)N(C)CC(=O)N(C)[C@H]3CCCCCN(C3=O)[C@@H](Cc3ccc(C(F)(F)F)cc3)C(=O)N(C)CC(=O)N[C@@H](CCc3ccc(C(F)(F)F)c(Cl)c3)C(=O)N2C1 [PP0849]	B (a compound having 3 or more and less than 10 is denoted as B)	B (a compound having 3 or more and less than 10 is denoted as B)	35.7
CCO[C@@H]1C[C@H]2C(=O)NC3(CCC3)C(=O)N(C)[C@@H](C3CCCC3)C(=O)N(C)[C@H](C(=O)N3CCOCC3)CC(=O)N(C)[C@@H](COC)C(=O)N[C@@H]([C@@H](C)CC)C(=O)N(C)CC(=O)N(C)[C@H]3CCCCCN(C3=O)[C@@H](Cc3ccc(C(F)(F)F)cc3)C(=O)N(C)CC(=O)N[C@@H](CCc3ccc(C)cc3)C(=O)N2C1 [PP0850]	B (a compound having 3 or more and less than 10 is denoted as B)	B (a compound having 3 or more and less than 10 is denoted as B)	3090
CCO[C@@H]1C[C@H]2C(=O)NC3(CCC3)C(=O)N(C)[C@@H](C3CCCC3)C(=O)N(C)[C@H](C(=O)N3CCOCC3)CC(=O)N(C)[C@@H](CC(F)F)C(=O)N[C@@H]([C@@H](C)CC)C(=O)N(C)CC(=O)N(C)[C@H]3CCCCCN(C3=O)[C@@H](Cc3ccc(C(F)(F)F)cc3)C(=O)N(C)CC(=O)N[C@@H](CCc3cc(F)c(C(F)(F)F)c(F)c3)C(=O)N2C1 [PP0854]	B (a compound having 3 or more and less than 10 is denoted as B)	B (a compound having 3 or more and less than 10 is denoted as B)	21.7
CCO[C@@H]1C[C@H]2C(=O)NC3(CCC3)C(=O)N(C)[C@@H](C3CCCC3)C(=O)N(C)[C@H](C(=O)N3CCOCC3)CC(=O)N(C)[C@@H](Cc3cccc(Cl)c3)C(=O)N[C@@H]([C@@H](C)CC)C(=O)N(C)CC(=O)N(C)[C@H]3CCCCCN(C3=O)[C@@H](Cc3ccc(C(F)(F)F)cc3)C(=O)N(C)CC(=O)N[C@@H](CCc3cc(F)c(C(F)(F)F)c(F)c3)C(=O)N2C1 [PP0857]	B (a compound having 3 or more and less than 10 is denoted as B)	B (a compound having 3 or more and less than 10 is denoted as B)	111
CCO[C@@H]1C[C@H]2C(=O)NC3(CCC3)C(=O)N(C)[C@@H](C3CCCC3)C(=O)N(C)[C@H](C(=O)N3CCOCC3)CC(=O)N(C)[C@@H](COC)C(=O)N[C@@H]([C@@H](C)CC)C(=O)NCC(=O)N(C)[C@H]3CCCCCN(C3=O)[C@@H](Cc3ccc(C(F)(F)F)cc3)C(=O)N(C)CC(=O)N[C@@H](CCc3cc(F)c(C(F)(F)F)c(F)c3)C(=O)N2C1 [PP0858]	B (a compound having 3 or more and less than 10 is denoted as B)	B (a compound having 3 or more and less than 10 is denoted as B)	52.5
CCO[C@@H]1C[C@H]2C(=O)NC3(CCC3)C(=O)N(C)[C@@H](C3CCCC3)C(=O)N(C)[C@H](C(=O)N(C)C)CC(=O)N(C)[C@@H](COC)C(=O)N[C@@H]([C@@H](C)CC)C(=O)NCC(=O)N(C)[C@H]3CCCCCN(C3=O)[C@@H](Cc3ccc(C(F)(F)F)cc3)C(=O)N(C)CC(=O)N[C@@H](CCc3cc(F)c(C(F)(F)F)c(F)c3)C(=O)N2C1 [PP0859]	B (a compound having 3 or more and less than 10 is denoted as B)	B (a compound having 3 or more and less than 10 is denoted as B)	22.4
